Numbered stars: 1 amine (or outer) side, 2 acyl side, 3 side chain; on linkers, the order of the positions; unused ones are H or OH. Bridge positions count the residues as written; N and C are the ends. Square brackets hold non-standard residues; d marks the D form. Peptide text beside a SMILES is read from it. Adda = CO[C@@H](Cc1ccccc1)[C@@H](C)/C=C(C)/C=C/[C@H](N[*:1])[C@H](C)C(=O)[*:2]; X1 = CC(C)C[C@H](N[*:1])C(=O)C[C@@H](C(=O)O)[C@H](C)C(=O)[*:2]; NMeDha = C=C(NC)C(=O)O
Assay: Inhibition of microcystin analogues to catalytic subunits of Serine/threonine protein phosphatase 2A (PP2Ac)

| SMILES | IC50 [nM] |
| --- | --- |
| CO[C@@H](Cc1ccccc1)[C@@H](C)/C=C(C)/C=C/[C@@H]1NC(=O)[C@H](C)NC(=O)[C@@H](C)[C@H](C(=O)O)CC(=O)[C@H](CC(C)C)NC(=O)[C@@H](C)NC(=O)CN(C)C(=O)CC[C@H](C(=O)O)NC(=O)[C@H]1C [25-Isobutyl-15-(6-methoxy-3,5-dimethyl-7-phenyl-hepta-1,3-dienyl)-3,7,14,18,21-pentamethyl-2,5,8,13,17,20,24-heptaoxo-1,4,7,12,16,19hexaaza-cyclopentacosane-11,22-dicarboxylic acid] | 1.5 |
| C=C1C(=O)N[C@H](C)C(=O)N[C@@H](CC2CCCCC2)C(=O)C[C@@H](C(=O)O)[C@H](C)C(=O)N[C@@H](C)C(=O)N[C@@H](/C=C/C(C)=C/[C@H](C)[C@H](Cc2ccccc2)OC)[C@H](C)C(=O)N[C@@H](C(=O)O)CCC(=O)N1C [25-Cyclohexylmethyl-15-(6-methoxy-3,5-dimethyl-7-phenyl-hepta-1,3-dienyl)-3,7,14,18,21-pentamethyl-6-methylene-2,5,8,13,17,20,24-heptaoxo-1,4,7,12,16,19hexaaza-cyclopentacosane-11,22-dicarboxylic acid] | 3.4 |
| C=C1C(=O)N[C@H](CN)C(=O)N[C@@H](CC(C)C)C(=O)C[C@@H](C(=O)O)[C@H](C)C(=O)N[C@@H](C)C(=O)N[C@@H](/C=C/C(C)=C/[C@H](C)[C@H](Cc2ccccc2)OC)[C@H](C)C(=O)N[C@@H](C(=O)O)CCC(=O)N1C [11,22-Dicarboxy-25-isobutyl-15-(6-methoxy-3,5-dimethyl-7-phenyl-hepta-1,3-dienyl)-7,14,18,21-tetramethyl-6-methylene-2,5,8,13,17,20,24-heptaoxo-1,4,7,12,16,19hexaaza-cyclopentacos-3-ylmethyl-ammonium] | 9 |
| C=C1C(=O)N[C@H](C)C(=O)N[C@@H](CC(C)C)C(=O)C[C@@H](C(=O)O)[C@H](C)C(=O)N[C@@H](C)C(=O)N[C@@H](/C=C/C(C)=C/[C@H](C)[C@H](Cc2ccccc2)OC)[C@H](C)C(=O)N[C@@H](C(=O)O)CCC(=O)N1C [25-Isobutyl-15-(6-methoxy-3,5-dimethyl-7-phenyl-hepta-1,3-dienyl)-3,7,14,18,21-pentamethyl-6-methylene-2,5,8,13,17,20,24-heptaoxo-1,4,7,12,16,19hexaaza-cyclopentacosane-11,22-dicarboxylic acid] ([NMeDha][dA][X1]A[Adda][dE]-OH; lactam N-6) | 0.3 |
| CO[C@@H](Cc1ccccc1)[C@@H](C)/C=C(C)/C=C/[C@@H]1NC(=O)[C@H](C)NC(=O)[C@@H](C)[C@H](C(=O)O)CC(=O)[C@H](CC(C)C)NC(=O)[C@@H](C)NC(=O)CN(C2CCCCC2)C(=O)CC[C@H](C(=O)O)NC(=O)[C@H]1C [7-Cyclohexyl-25-isobutyl-15-(6-methoxy-3,5-dimethyl-7-phenyl-hepta-1,3-dienyl)-3,14,18,21-tetramethyl-2,5,8,13,17,20,24-heptaoxo-1,4,7,12,16,19hexaaza-cyclopentacosane-11,22-dicarboxylic acid] | 1.5 |
